Data from PubChem BioAssay AID1963451 (Molecular Pharmacology Branch, DTP, NCI, 2024).
Several values for one entry are separate records, joined by “and”; a condition that tells them apart may be missing. Equal entries are not always repeated.

System: 521955-158-R6-J3-PDC complex spheroid growth, % test/control
Assay: Anticancer human tumor 521955-158-R6-J3-PDC patient-derived pancreatic carcinoma cell line growth inhibition [Asc]
Conditions: for viability, T/C: stronger effect = lower value
Method: Multicellular complex tumor spheroid response to apoptosis pathway targeting inhibitors Alrizomadlin, Pelcitoclax, and Dasminapant in combination with a variety of drugs and investigational agents in selected tumor cell lines
The MDM2 inhibitor alrizomadlin, the Bcl-2/Bcl-xL inhibitor pelcitoclax, and the IAPs inhibitor dasminapant were evaluated both individually and in combination with standard of care and investigational anticancer small molecules within a complex spheroid model of solid tumors. . Complex spheroids include a stromal component modeled by human endothelial cells (HUVEC) and fibroblasts modeled by human mesenchymal stem cells (MSCs). The concentration ranges selected for each drug and investigational agent were based upon clinically achievable concentrations if the clinical Cmax of the agent was known.
Compounds. The drugs and investigational agents: alrizomadlin (APG-115; NSC831270), pelcitoclax (APG-1252; NSC835773), dasminapant (APG-1387;NSC834197), TAK-243 (NSC785004), copanlisib (NSC809693), olaparib (NSC753686), talazoparib (NSC767125), cobimetinib (NSC 768068), eltanexor (KPT-8602, NSC 794443), abemaciclib (NSC 768073), sotorasib (NSC818433), adagrasib (NSC 831453), MRTX-1133 (NSC 836407), Iadademestat (ORY1001, NSC 806812), and RMC-4630 (NSC839698), were obtained from the NCI Developmental Therapeutics Program Chemical Repository. The FDA-approved anticancer drug set is available from the Developmental Therapeutics Program at https://dtp.cancer.gov/organization/dscb/obtaining/available plates.htm. […] The stock solutions were prepared in dimethyl sulfoxide (DMSO, Sigma-Aldrich, St. Louis, MO, cat. D2650) at 800-fold the tested concentration and stored at -70 degrees C prior to their use. All drugs and investigational agents were tested over a range starting from a high concentration at or near the clinical Cmax and decreasing in half-log increments. If the clinical Cmax for an agent had not been determined, the highest concentration tested was 10 microM.
The patient-derived cancer (PDC) cell lines include five colon adenocarcinomas: 186277-243-T-J2-PDC, 616215-338-R-J1-PDC, 439559-082-T-J2-PDC, 463943-066-T-J2-PDC, and 519858-162-T-J1-PDC; three pancreatic carcinomas: 323965-272-R-J2-PDC, 521955-158-R6-J3-PDC, and 521955-158-R2-J5-PDC; two uterine sarcomas: 327498-152-R-J2-PDC and 993429-296-R-J1-PDC; two rhabdomyosarcomas: 755483-174-R-J1-PDC and 772245-204-R-J1-PDC; two soft tissue sarcomas: 126254-015-R-J1-PDC and 494315-158-R-J1-PDC; two malignant fibrous histiocytomas: 317291-083-R-J1-PDC and 596521-263-R-J1-PDC; two breast carcinomas: 171881-019-R-J1-PDC and 885512-296-R-J2-PDC; and one ovarian carcinoma: 6556581-035-R-J-PDC were obtained from the NCI PDMR, (https://pdmr.cancer.gov). The established cell lines HSSY-2 synovial sarcoma (RRID:CVCL 8719), SYO-1 synovial sarcoma (RRID:CVCL_7146), MPNST malignant peripheral neural sheath tumor were obtained from the Sloan Kettering Institute. The following established cell lines were purchased from the American Type Culture Collection (ATCC, Manassas, VA), Sor the received from the NCI repository:, PANC-1 pancreatic carcinoma (CRL-1469, RRID:CVCL_0480), OVCAR-5 ovarian carcinoma (RRID:CVCL_1628), OVCAR-8 ovarian carcinoma (RRID:CVCL_1629), , MCF-7 breast carcinoma (CRL-12584, RRID:CVCL_0031), MDA-MB-231 breast carcinoma (CRL-12532, RRID:CVCL_0062), NCI-H1876 small cell lung carcinoma (CRL-5902, RRID:CVCL_1503), NCI-H510A small cell lung carcinoma (HTB-184, RRID:CVCL_1565), NCI-H1417 (CRL-5869, RRID:CVCL_1469), and NCI-H196 small cell lung carcinoma (CRL-5823, RRID:CVCL_1509). Dr. Peter Houghton (Greehey Children's Cancer Research Institute, University of Texas Health Science Center, San Antonio, TX) provided Rh-18 rhabdomyosarcoma (RRID:CVCL_1659). Pooled donor human umbilical vein endothelial cells (HUVEC, Lonza, cat. CC-2519) and human mesenchymal stem cells (hMSC, Lonza, cat. PT-2501) were purchased from Lonza (Walkersville, MD).
Cell Culture. […]

[1] = compound alone, run of 11/07/2022
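Note: spheroids exposed to compounds for 7 days.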
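Throughout, for viability, T/C: 100% = DMSO vehicle control wells.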

Row | IC50 (curve of compound) | SMILES | viability, T/C (compound 0.0316 µM) | viability, T/C (compound 0.1 µM) | viability, T/C (compound 0.316 µM) | viability, T/C (compound 1 µM) | viability, T/C (compound 3.16 µM) | viability, T/C (compound 10 µM) | viability, T/C (compound 0.00316 µM) | viability, T/C (compound 0.01 µM) | other results
1 | 342 nM and 452 nM and 387 nM | C#Cc1c(F)ccc2cc(O)cc(-c3ncc4c(N5CC6CCC(C5)N6)nc(OCC56CCCN5CC(F)C6)nc4c3F)c12 (centres undefined) | 60.7% and 66.5% and 60.8% | 52.9% and 52% and 53.5% | 46% and 58.3% and 47.4% | 48% and 45.1% and 47% | 33.9% and 35.5% and 44.9% | 18.6% and 32.2% | – | – | –
2 | 5040 nM and 4980 nM and 5380 nM | C=C(F)C(=O)N1CCN(c2nc(OCC3CCCN3C)nc3c2CCN(c2cccc4cccc(Cl)c24)C3)CC1CC#N (centres undefined) | 102% (2×) and 93.7% | 93.2% and 115% and 87.3% | 78.6% and 89.8% and 90.9% | 89.2% and 87.9% and 95.7% | 83.7% and 86.3% and 93.3% | 0.33% and 0.31% and 0.93% | – | – | –
3 | > 10000 nM | C=CC(=O)N1CCN(c2nc(=O)n(-c3c(C)ccnc3C(C)C)c3nc(-c4c(O)cccc4F)c(F)cc23)C(C)C1 (centres undefined) | 104% and 94.7% and 96.5% | 105% and 107% and 89.4% | 95.1% and 92% and 95.3% | 111% and 100% and 122% | 112% and 125% and 121% | 93.7% and 124% and 118% | – | – | –
4 | > 3000 nM | CCN1C(C(=O)NC23CCC(C(=O)O)(CC2)CC3)C(c2cccc(Cl)c2F)C2(C(=O)Nc3cc(Cl)ccc32)C12CCCCC2 (centres undefined) | – | – | – | – | – | – | – | – | viability, T/C (compound 0.3 µM): 109% [middle of 9 runs]; IC50 [1]: > 3000 nM
5 | > 1000 nM | CCN1CCN(Cc2ccc(Nc3ncc(F)c(-c4cc(F)c5nc(C)n(C(C)C)c5c4)n3)nc2)CC1 | 77.9% and 87.5% and 87.9% | 86.7% and 105% and 94.8% | 85.5% and 74.2% and 83.4% | 87.4% and 96.5% and 91.6% | – | – | 88.9% and 113% and 94.9% | 105% and 115% and 102% | –
6 | > 1000 nM | CNC(C)C(=O)NC1CN(S(=O)(=O)c2cccc(S(=O)(=O)N3CCC4CCC(C(=O)NC(c5ccccc5)c5ccccc5)N4C(=O)C(NC(=O)C(C)NC)C3)c2)CCC2CCC(C(=O)NC(c3ccccc3)c3ccccc3)N2C1=O (centres undefined) | – | – | – | – | – | – | – | – | IC50 (compound alone, run of 11/15/2022): > 1000 nM
7 | 592 nM and 275 nM and 177 nM | COc1c(OCCCN2CCOCC2)ccc2c3n(c(=NC(=O)c4cnc(N)nc4)nc12)CCN3 | 76.5% and 75.6% and 63.8% | 62.5% and 81.4% and 64.8% | 41.9% and 61.3% and 48.6% | 34.7% and 40% and 32.8% | – | – | 83.2% and 98.8% and 91.5% | 97.2% and 78.8% and 72.1% | –
8 | – | Cc1c(S(C)(=O)=O)c(-c2cc(F)cc(N3CCN(c4ccc(NS(=O)(=O)c5ccc(NC(CCN6CCC(C(=O)OCCCP(=O)(O)O)CC6)CSc6ccccc6)c(S(=O)(=O)C(F)(F)F)c5)cc4)CC3)c2)c(-c2ccc(Cl)cc2)n1C(C)C (centres undefined) | 77.2% [middle of 7 runs] | 71.5% [middle of 7 runs] | 54% [middle of 7 runs] | 37.2% [middle of 7 runs] | 23.6% [middle of 7 runs] | 18.2% [middle of 7 runs] | – | – | IC50 [1]: 412 nM [middle of 7 runs]
9 | > 3000 nM | Cc1nc(N2CCC3(CC2)COC(C)C3N)c(CO)nc1Sc1ccnc(N)c1Cl (centres undefined) | – | – | – | – | – | – | – | – | viability, T/C (compound 0.00949 µM): 89.6% and 113% and 112%; viability, T/C (compound 0.03 µM): 90.4% and 106% and 101%; viability, T/C (compound 0.0949 µM): 83.9% and 93.1% and 97%; viability, T/C (compound 0.3 µM): 84.7% and 97.1% and 94.5%; viability, T/C (compound 0.949 µM): 72.8% and 94.4% and 71.6%; viability, T/C (compound 3 µM): 57.9% and 89.5% and 90.1%
10 | > 100 nM | Cn1ncnc1[C@H]1c2n[nH]c(=O)c3cc(F)cc(c23)N[C@@H]1c1ccc(F)cc1 | 97.9% and 96.4% and 84.3% | 95.5% and 85.7% and 96.4% | – | – | – | – | 108% and 97.1% and 83.8% | 106% and 116% and 114% | viability, T/C (compound 0.000316 µM): 100% and 86% and 85.9%; viability, T/C (compound 0.001 µM): 117% and 105% and 93.7%
11 | > 300 nM | NC(=O)C(=Cn1cnc(-c2cc(C(F)(F)F)cc(C(F)(F)F)c2)n1)c1cncnc1 | – | – | – | – | – | – | – | – | viability, T/C (compound 0.000949 µM): 105% and 126% and 111%; viability, T/C (compound 0.003 µM): 96.3% and 105% and 115%; viability, T/C (compound 0.00949 µM): 84.8% and 93.3% and 105%; viability, T/C (compound 0.03 µM): 98% and 98.2% and 115%; viability, T/C (compound 0.0949 µM): 124% and 107% and 73.9%; viability, T/C (compound 0.3 µM): 121% and 93.9% and 62.7%
12 | > 100 nM | NC1CCC(NC2CC2c2ccccc2)CC1 (centres undefined) | 128% and 103% and 93.2% | 117% and 99.7% and 89.2% | – | – | – | – | 136% and 105% and 97.8% | 128% and 117% and 109% | viability, T/C (compound 0.000316 µM): 104% and 94% and 98.2%; viability, T/C (compound 0.001 µM): 124% and 120% and 99.5%
13 | > 10000 nM | O=C(c1cc(Cc2n[nH]c(=O)c3ccccc23)ccc1F)N1CCN(C(=O)C2CC2)CC1 | 103% and 91.4% and 91.6% | 92.6% and 93.9% and 101% | 100% and 101% and 87.3% | 108% and 101% and 91.8% | 98.8% and 94.8% and 124% | 98.6% and 78.8% and 86.5% | – | – | –
14 | 681 nM and 684 nM and 396 nM | O=C(c1ccc(F)c(F)c1Nc1ccc(I)cc1F)N1CC(O)([C@@H]2CCCCN2)C1 | 120% and 125% and 79.5% | 105% and 98.2% and 79% | 67.9% and 66.9% and 54% | 41% and 41.8% and 29.7% | – | – | 87.6% and 110% and 88.3% | 116% and 111% and 90.7% | –
